This passage reports Activity, IC50 and Ki results from ChEMBL document CHEMBL2146451, “Antidiabetic activity of some pentacyclic acid triterpenoids, role of PTP-1B: in vitro, in silico, and in vivo approaches” (Eur J Med Chem, 2011).

Assay [1] deals with Rattus norvegicus. Kind of assay: Antidiabetic activity in STZ-nicotinamide diabetic Wistar rat T2DM model assessed as decrease in blood glucose level at 5 mg/kg, po after 7 hrs by enzymatic glucose oxidase method relative to control. Format: functional. Details: scale not given: the % may be the effect or the level left.
The subject of assay [2] is Rattus norvegicus. Kind of assay: Antidiabetic activity in STZ-nicotinamide diabetic Wistar rat T2DM model assessed as decrease in blood glucose level at 5 mg/kg, po after 3 hrs by enzymatic glucose oxidase method relative to control. Format: functional. Details: scale not given: the % may be the effect or the level left.
Assay [3] deals with Rattus norvegicus. As to the kind of experiment: Antidiabetic activity in STZ-nicotinamide diabetic Wistar rat T2DM model assessed as decrease in blood glucose level at 5 mg/kg, po after 1 hr by enzymatic glucose oxidase method relative to control. Format: functional. Details: scale not given: the % may be the effect or the level left.
Assay [4] deals with Rattus norvegicus. Kind of assay: Antidiabetic activity in STZ-nicotinamide diabetic Wistar rat T2DM model assessed as decrease in blood glucose level at 5 mg/kg, po after 5 hrs by enzymatic glucose oxidase method relative to control. Format: functional. Details: scale not given: the % may be the effect or the level left.
Assay [5] addresses T1, Low molecular weight phosphotyrosine protein phosphatase (Homo sapiens, UniProt P24666).
T1 sequence (P24666 whole entry): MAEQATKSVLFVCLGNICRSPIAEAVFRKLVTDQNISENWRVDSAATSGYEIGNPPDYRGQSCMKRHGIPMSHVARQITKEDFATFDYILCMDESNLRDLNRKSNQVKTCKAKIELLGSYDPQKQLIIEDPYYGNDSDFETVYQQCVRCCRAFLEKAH
Kind of assay: Inhibition of human recombinant LMW-PTP1 expressed in Escherichia coli TB1 using p-nitrophenyl phosphate as substrate after 1 hr.

Assay [6] has as its system Rattus norvegicus. As to the kind of experiment: Antidiabetic activity in STZ-nicotinamide diabetic Wistar rat T2DM model assessed as decrease in blood glucose level at 50 mg/kg, po after 3 hrs by enzymatic glucose oxidase method relative to control. Details: scale not given: the % may be the effect or the level left. Format: functional.
The target of assay [7] is Receptor-type tyrosine-protein phosphatase F (Homo sapiens, UniProt P10586). As to the kind of experiment: Inhibition of human recombinant LAR expressed in Escherichia coli TB1 using p-nitrophenyl phosphate as substrate after 1 hr.
Assay [8] relates to Rattus norvegicus. As to the kind of experiment: Antidiabetic activity in STZ-nicotinamide diabetic Wistar rat T2DM model assessed as decrease in blood glucose level at 50 mg/kg, po after 7 hrs by enzymatic glucose oxidase method relative to control. Format: functional. Details: scale not given: the % may be the effect or the level left.
The subject of assay [9] is Rattus norvegicus. Kind of assay: Antidiabetic activity in STZ-nicotinamide diabetic Wistar rat T2DM model assessed as decrease in blood glucose level at 50 mg/kg, po after 5 hrs by enzymatic glucose oxidase method relative to control. The format is functional. Details: scale not given: the % may be the effect or the level left.
Assay [10] concerns Rattus norvegicus. Kind of assay: Antidiabetic activity in STZ-nicotinamide diabetic Wistar rat T2DM model assessed as decrease in blood glucose level at 50 mg/kg, po after 1 hr by enzymatic glucose oxidase method relative to control. The format is functional. Details: scale not given: the % may be the effect or the level left.
Assay [11] has as its target T1, Low molecular weight phosphotyrosine protein phosphatase. As to the kind of experiment: Inhibition of human recombinant LMW-PTP2 expressed in Escherichia coli TB1 using p-nitrophenyl phosphate as substrate after 1 hr.
Assay [12] deals with T2, Tyrosine-protein phosphatase non-receptor type 1 (Homo sapiens, UniProt P18031).
T2 sequence (P18031 whole entry): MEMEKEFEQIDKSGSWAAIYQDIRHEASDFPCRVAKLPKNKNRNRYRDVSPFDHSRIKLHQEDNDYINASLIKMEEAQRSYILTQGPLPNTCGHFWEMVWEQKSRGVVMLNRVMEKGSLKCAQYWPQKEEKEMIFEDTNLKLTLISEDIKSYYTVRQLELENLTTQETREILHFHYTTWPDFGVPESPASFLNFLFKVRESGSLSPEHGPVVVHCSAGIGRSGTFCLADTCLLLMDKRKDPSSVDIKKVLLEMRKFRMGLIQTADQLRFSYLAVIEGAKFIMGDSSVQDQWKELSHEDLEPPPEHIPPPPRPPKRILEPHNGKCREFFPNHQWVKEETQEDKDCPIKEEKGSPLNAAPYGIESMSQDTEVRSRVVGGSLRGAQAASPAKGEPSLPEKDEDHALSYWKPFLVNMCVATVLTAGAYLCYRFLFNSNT
Description: Inhibition of human recombinant PTP-1B expressed in Escherichia coli TB1 using p-nitrophenyl phosphate as substrate after 1 hr

Assay [13] deals with T2, Tyrosine-protein phosphatase non-receptor type 1. Kind of assay: Mixed type inhibition of human recombinant PTP-1B expressed in Escherichia coli TB1 using p-nitrophenyl phosphate as substrate.
Assay [14] in a line: Inhibition of yeast LMW-PTP1 expressed in Escherichia coli TB1 using p-nitrophenyl phosphate as substrate after 1 hr. Details: species or system Saccharomyces cerevisiae.
The species named for assay [15] is Mus musculus. As to the kind of experiment: Antidiabetic activity in normal Swiss mouse assessed as reduction of blood glucose level by glucose tolerance test relative to control. Details: scale not given: the % may be the effect or the level left. The format is functional.

Structures are written as SMILES.

Sequence of Receptor-type tyrosine-protein phosphatase F (P10586 whole entry): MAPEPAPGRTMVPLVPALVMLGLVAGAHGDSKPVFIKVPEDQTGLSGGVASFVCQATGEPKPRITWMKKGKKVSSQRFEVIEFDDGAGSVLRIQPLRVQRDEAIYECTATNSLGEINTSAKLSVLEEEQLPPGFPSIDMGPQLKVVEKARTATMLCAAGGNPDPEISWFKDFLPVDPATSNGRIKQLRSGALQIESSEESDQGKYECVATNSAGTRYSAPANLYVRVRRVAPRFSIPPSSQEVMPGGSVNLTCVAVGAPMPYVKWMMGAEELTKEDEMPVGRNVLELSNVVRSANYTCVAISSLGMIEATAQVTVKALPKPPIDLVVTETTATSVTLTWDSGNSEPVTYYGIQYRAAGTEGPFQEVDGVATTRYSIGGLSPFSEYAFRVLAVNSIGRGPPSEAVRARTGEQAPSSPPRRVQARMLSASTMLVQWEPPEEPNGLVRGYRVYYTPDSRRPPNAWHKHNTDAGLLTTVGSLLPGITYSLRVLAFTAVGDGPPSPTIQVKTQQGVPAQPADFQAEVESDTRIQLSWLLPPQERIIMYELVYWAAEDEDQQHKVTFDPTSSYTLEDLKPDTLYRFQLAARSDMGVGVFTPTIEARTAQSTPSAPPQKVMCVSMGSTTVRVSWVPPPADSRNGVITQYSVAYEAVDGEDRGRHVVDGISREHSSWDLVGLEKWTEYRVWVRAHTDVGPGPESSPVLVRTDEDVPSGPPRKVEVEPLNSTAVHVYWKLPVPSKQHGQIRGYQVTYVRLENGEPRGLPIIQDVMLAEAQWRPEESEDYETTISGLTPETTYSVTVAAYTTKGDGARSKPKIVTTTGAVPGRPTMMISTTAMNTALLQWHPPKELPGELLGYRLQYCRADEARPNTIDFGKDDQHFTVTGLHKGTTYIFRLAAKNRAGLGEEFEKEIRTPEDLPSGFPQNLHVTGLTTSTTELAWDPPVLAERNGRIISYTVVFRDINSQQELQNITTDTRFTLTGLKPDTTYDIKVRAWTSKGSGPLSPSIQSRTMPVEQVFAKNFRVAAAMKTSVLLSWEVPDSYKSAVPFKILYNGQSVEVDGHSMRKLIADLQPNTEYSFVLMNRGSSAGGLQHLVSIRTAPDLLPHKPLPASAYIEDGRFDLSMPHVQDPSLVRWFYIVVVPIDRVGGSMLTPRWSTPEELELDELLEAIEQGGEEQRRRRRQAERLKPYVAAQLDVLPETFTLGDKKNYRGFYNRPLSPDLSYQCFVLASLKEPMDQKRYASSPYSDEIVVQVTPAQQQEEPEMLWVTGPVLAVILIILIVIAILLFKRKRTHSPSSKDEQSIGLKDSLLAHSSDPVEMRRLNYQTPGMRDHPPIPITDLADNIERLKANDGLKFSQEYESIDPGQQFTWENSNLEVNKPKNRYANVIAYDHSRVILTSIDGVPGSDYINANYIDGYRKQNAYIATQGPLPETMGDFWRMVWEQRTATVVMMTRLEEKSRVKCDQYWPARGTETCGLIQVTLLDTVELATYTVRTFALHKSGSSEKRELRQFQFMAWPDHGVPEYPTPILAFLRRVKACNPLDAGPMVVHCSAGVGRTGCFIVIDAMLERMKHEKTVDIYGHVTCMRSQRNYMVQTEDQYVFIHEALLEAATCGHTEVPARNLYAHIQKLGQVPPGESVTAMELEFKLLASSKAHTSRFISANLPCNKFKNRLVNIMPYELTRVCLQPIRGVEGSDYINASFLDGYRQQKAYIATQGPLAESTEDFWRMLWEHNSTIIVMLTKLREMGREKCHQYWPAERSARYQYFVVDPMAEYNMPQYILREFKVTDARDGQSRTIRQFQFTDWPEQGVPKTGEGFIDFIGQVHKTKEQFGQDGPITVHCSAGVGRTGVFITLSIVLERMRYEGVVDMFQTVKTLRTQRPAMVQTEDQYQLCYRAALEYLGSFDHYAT

Take `COc1ccc(Cl)cc1C(=O)NCCc1ccc(S(=O)(=O)NC(=O)NC2CCCCC2)cc1` [GLYBURIDE]: the Activity in [1] was determined as 43.6%; in [2], 36.3%; in assay [3], 20.4%; in assay [4], 37.5%.
What is called IC50 is the concentration needed to halve the response being measured. Turning to `CC1(C)C=C2[C@H]3CC[C@@H]4[C@@]5(C)CC[C@H](O)C(C)(C)[C@@H]5CC[C@@]4(C)[C@]3(C)CC[C@@]2(C(=O)O)CC1` [MOROLIC ACID], the IC50 in assay [5] amounted to 13.4 µM; in assay [7] it was 35.9 µM; in assay [11], 30.6 µM. The Activity in [6] was found to be 15.2%; in assay [8], 39.2%; in assay [9], 8.77%; in [10] it was 1.54%.
For orientation: Ki means a dissociation constant, usually derived from enzyme kinetics or from competition with a known ligand. `CC1(C)C=C2[C@H]3CC[C@@H]4[C@@]5(C)CCC(=O)C(C)(C)[C@@H]5CC[C@@]4(C)[C@]3(C)CC[C@@]2(C(=O)O)CC1` [MORONIC ACID]: the IC50 in assay [5] came to 20.6 µM; in assay [7], 45.6 µM; in [12], 13.2 µM; in assay [14], 51.2 µM; in [11], 27.4 µM. Further, the Activity worked out at 26.3% in assay [6], 29.2% in [8], 15.3% in assay [9] and 17.3% in assay [10]. For the same compound, the Ki in assay [13] amounted to 8 µM.
Regarding `CC1(C)CC[C@]2(C(=O)O)CC[C@]3(C)C(=CC[C@@H]4[C@@]5(C)CC[C@H](O)C(C)(C)[C@@H]5CC[C@]43C)[C@@H]2C1` [OLEANOLIC_ACID], the IC50 is 21.2 µM in assay [5], 11.8 µM in assay [7], 44.8 µM in assay [14] and 22.9 µM in assay [11]. The Activity turned out to be 14.1% in [6]; 21.9% in assay [8]; 22% in assay [15]; 23.2% in assay [9]; 26.9% in assay [10].
With `C[C@H]1[C@H](C)CC[C@]2(C(=O)O)CC[C@]3(C)C(=CC[C@@H]4[C@@]5(C)CC[C@H](O)C(C)(C)[C@@H]5CC[C@]43C)[C@H]12` [URSOLIC ACID], the IC50 worked out at 7.2 µM in [5], 3.8 µM in assay [7], 20 µM in assay [14] and 11.1 µM in assay [11]. Moreover, the Activity was 24.4% in assay [6], 38% in [8], 25.7% in assay [9] and 13.5% in assay [10].
